≈ marks a conversion by molar mass, not a printed value.
Assays:
[1] = Oral bioavailability in Sprague-dawley rat at 20 mg/kg by LC-MS/MS analysis; format: ADME, organism-based; details: in vivo
[2] = system: Plasmodium falciparum; assay: microbe, parasite or virus in culture; details: NF54, Erythrocyte
Description: Antiplasmodial activity against multidrug-sensitive Plasmodium falciparum NF54 infected in human erythrocytes assessed as reduction in [3H]hypoxanthine incorporation preincubated for 48 hrs followed by [3H]hypoxanthine addition and measured after 24 hrs by liquid scintillation counting method

[3] = system: Plasmodium berghei; assay: Antiplasmodial activity against Plasmodium berghei ANKA infected in NMRI mouse model assessed as reduction in parasitemia administered orally once a day for 4 consecutive days measured at day 7 post infection by flow cytometry analysis; format: functional; details: po, 96 h, time 4 day
[4] = system: Plasmodium falciparum; assay: microbe, parasite or virus in culture; details: K1, Erythrocyte
Description: Antiplasmodial activity against multidrug-resistant Plasmodium falciparum K1 infected in erythrocytes assessed as reduction in [3H]hypoxanthine incorporation preincubated for 48 hrs followed by [3H]hypoxanthine addition and measured after 24 hrs by liquid scintillation counting method

[5] = Metabolic stability in rat liver microsomes assessed as compound remaining at 0.1 uM measured after 30 mins in presence of cofactor NADPH by LC-MS/MS analysis; format: ADME, Microsome; details: read-out: Stabilty
[6] = Aqueous solubility of compound in pH 2 0.01M HCl incubated for 2 hrs under shaking condition by shake-flask method based HPLC-DAD analysis; format: physicochemical
[7] = AUC(app) in NMRI mouse plasma infected with Plasmodium berghei ANKA at 3 mg/kg, po qd for 4 consecutive days and measured post last dose; format: ADME, organism-based; details: time 4 day
[8] = system: Plasmodium falciparum; assay: Antiplasmodial activity against Plasmodium falciparum 3D70087/N9 infected in NOD-SCID IL2Rgamma null mouse assessed as reduction in parasitemia administered orally on day 3 to 6 post-infection and measured day 7 post infection by TER-119-PE and […] dye based flow cytometry; format: functional; details: 3D70087/N9, po, 120 h, time 5 day
[9] = system: Plasmodium falciparum; assay: Antiplasmodial activity against late stage (IV/V) Plasmodium falciparum NF54 gametocytes incubated for 48 hrs by luciferase reporter gene assay; format: functional, organism-based; details: NF54, 48 h
[10] = Metabolic stability in human liver microsomes assessed as compound remaining at 0.1 uM measured after 30 mins in presence of cofactor NADPH by LC-MS/MS analysis; format: ADME, Microsome; details: read-out: Stabilty
[11] = Half-life in Sprague-dawley rat at 20 mg/kg, po by LC-MS/MS analysis; format: ADME, organism-based; details: in vivo
[12] = system: Plasmodium falciparum; assay: Antiplasmodial activity against early stage (II/III) Plasmodium falciparum NF54 gametocytes incubated for 48 hrs by luciferase reporter gene assay; format: functional, organism-based; details: NF54, 48 h
[13] = system: Plasmodium falciparum; assay: Antimalarial activity against Plasmodium falciparum 3D70087/N9 infected in NOD-SCID IL2Rgamma null mouse assessed as blood AUC level require to show 90% reduction in parasitemia administered orally on day 3 to 6 post-infection and measured day 7 post infection; format: functional, organism-based; details: time 5.0 day
[14] = Apparent average plasma concentration in NMRI mouse plasma infected with Plasmodium berghei ANKA at 3 mg/kg, po qd for 4 consecutive days and measured post last dose; format: ADME, organism-based; details: in vivo, 96 h, time 4 day
[15] = system: Plasmodium berghei; assay: Antiplasmodial activity against Plasmodium berghei ANKA infected in NMRI mouse model assessed as mean survival days at 10 mg/kg, po qd for 4 consecutive day; format: functional; details: time 4 day
[16] = Cmax(app) in NMRI mouse plasma infected with Plasmodium berghei ANKA at 3 mg/kg, po qd for 4 consecutive days and measured post last dose; format: ADME, organism-based; details: time 4 day
[17] = Selectivity index, ratio of IC50 for cytotoxicity against CHO cells by MTT assay to IC50 for antiplasmodial activity against multidrug-sensitive Plasmodium falciparum NF54 infected in human erythrocytes; format: toxicity, cell-based; details: Chinese hamster, read-out: Ratio IC50
[18] = system: Plasmodium berghei; assay: Antiplasmodial activity against Plasmodium berghei ANKA infected in NMRI mouse model assessed as mean survival days at 3 mg/kg, po qd for 4 consecutive day; format: functional; details: time 4 day
[19] = Aqueous solubility of compound in pH 6.5 PBS incubated for 2 hrs under shaking condition by shake-flask method based HPLC-DAD analysis; format: physicochemical
[20] = Metabolic stability in mouse liver microsomes assessed as compound remaining at 0.1 uM measured after 30 mins in presence of cofactor NADPH by LC-MS/MS analysis; format: ADME, Microsome; details: read-out: Stabilty
[21] = system: Plasmodium berghei; assay: Antiplasmodial activity against Plasmodium berghei ANKA infected in NMRI mouse assessed as reduction in parasitemia at 3 mg/kg, po qd for 4 consecutive days measured at day 7 post infection by flow cytometry analysis; format: functional; parameters: scale not given: the % may be the effect or the level left; details: time 4 day
[22] = biological target: Voltage-gated inwardly rectifying potassium channel KCNH2 (Homo sapiens, UniProt Q12809); assay: Inhibition of human ERG by IonWorks patch clamp electrophysiology method
Sequence of Voltage-gated inwardly rectifying potassium channel KCNH2 (Q12809 whole entry): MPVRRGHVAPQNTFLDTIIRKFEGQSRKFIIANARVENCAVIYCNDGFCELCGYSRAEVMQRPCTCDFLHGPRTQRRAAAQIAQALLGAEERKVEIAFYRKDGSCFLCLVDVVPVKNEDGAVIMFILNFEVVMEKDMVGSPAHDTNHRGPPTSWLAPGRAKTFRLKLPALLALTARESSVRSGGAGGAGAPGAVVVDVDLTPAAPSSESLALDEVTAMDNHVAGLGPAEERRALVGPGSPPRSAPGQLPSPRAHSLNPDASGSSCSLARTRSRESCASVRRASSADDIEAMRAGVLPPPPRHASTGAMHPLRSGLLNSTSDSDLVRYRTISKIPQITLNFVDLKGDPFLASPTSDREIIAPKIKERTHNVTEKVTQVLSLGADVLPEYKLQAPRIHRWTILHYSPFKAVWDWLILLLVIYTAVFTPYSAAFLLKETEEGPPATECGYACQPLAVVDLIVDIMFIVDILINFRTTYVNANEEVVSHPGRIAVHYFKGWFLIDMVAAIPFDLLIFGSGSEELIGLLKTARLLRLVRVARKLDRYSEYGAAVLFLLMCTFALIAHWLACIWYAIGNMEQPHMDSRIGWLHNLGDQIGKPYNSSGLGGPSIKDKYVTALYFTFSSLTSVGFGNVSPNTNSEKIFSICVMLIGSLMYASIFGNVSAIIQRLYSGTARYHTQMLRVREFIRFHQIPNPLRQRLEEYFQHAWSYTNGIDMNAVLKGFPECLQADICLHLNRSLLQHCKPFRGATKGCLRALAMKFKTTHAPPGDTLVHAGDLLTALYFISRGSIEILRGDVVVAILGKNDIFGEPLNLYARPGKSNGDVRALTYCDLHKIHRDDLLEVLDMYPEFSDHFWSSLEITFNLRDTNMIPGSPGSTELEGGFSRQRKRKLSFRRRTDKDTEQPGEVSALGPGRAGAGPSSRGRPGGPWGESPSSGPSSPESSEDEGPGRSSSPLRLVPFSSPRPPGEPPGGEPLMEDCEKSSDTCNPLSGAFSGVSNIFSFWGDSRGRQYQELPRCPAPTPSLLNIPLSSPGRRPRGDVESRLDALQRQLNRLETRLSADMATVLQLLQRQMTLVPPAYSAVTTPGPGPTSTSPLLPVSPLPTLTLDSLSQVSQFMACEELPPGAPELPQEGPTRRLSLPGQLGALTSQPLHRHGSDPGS

[23] = system: Plasmodium berghei; assay: Antiplasmodial activity against Plasmodium berghei ANKA infected in NMRI mouse assessed as reduction in parasitemia at 10 mg/kg, po qd for 4 consecutive days measured at day 7 post infection by flow cytometry analysis; format: functional; parameters: scale not given: the % may be the effect or the level left; details: time 4 day
[24] = system: hERG (KCNH2); assay: Selectivity ratio of IC50 for inhibition of human ERG by IonWorks patch clamp electrophysiology method to IC50 for antiplasmodial activity against multidrug-sensitive Plasmodium falciparum NF54 infected in human erythrocytes; format: toxicity, cell-based; details: read-out: Ratio IC50
[25] = system: Plasmodium berghei; assay: Antiplasmodial activity against Plasmodium berghei ANKA infected in NMRI mouse model assessed as mean survival days at 30 mg/kg, po qd for 4 consecutive days; format: functional; details: time 4 day
[26] = Half-life in Sprague-dawley rat at 5 mg/kg, iv by LC-MS/MS analysis; format: ADME, organism-based; details: in vivo
[27] = Clearance in Sprague-dawley rat at 5 mg/kg, iv by LC-MS/MS analysis; format: ADME, organism-based; details: in vivo
[28] = system: Plasmodium berghei; assay: Antiplasmodial activity against luciferase expressing Plasmodium berghei sporozoites infected in human HepG2 cells preincubated with compound for 18 hrs followed by plasmodium infection measured after 48 hrs by bioluminescence assay; format: functional, organism-based
[29] = Volume of distribution in Sprague-dawley rat at 5 mg/kg, iv by LC-MS/MS analysis; format: ADME, organism-based; details: in vivo

Structure (SMILES)	IC50 [2] [nM]	IC50 [4] [nM]	remaining at 0.5 h, 0.1 µM [5] [%]	solubility thermodynamic at 2 h [6] [µM]	AUC at 96 h [7] [µM·h]	remaining at 0.5 h, 0.1 µM [10] [%]	Cave [14] [nM]	MSD [15] [days]	Cmax [16] [nM]	MSD [18] [days]	solubility thermodynamic at 2 h [19] [µM]	remaining at 0.5 h, 0.1 µM [20] [%]	Activity [21] [%]	other results
NC(=O)c1ccc(-c2cnc(N)c(-c3ccc(C(F)(F)F)cc3)n2)cc1	14	13	> 90	80 (≈ 28.7 µg/mL)	42.3	> 90	1800	>30	4000	20	< 5	> 90		bioavailability [1]: 25%; ED90 [3]: 0.3 mg/kg; ED90 [8]: < 0.1 mg/kg; IC50 [9]: 237 nM; half-life [11]: 7 h; IC50 [12]: 754 nM; AUC [13]: < 75 ng·h/mL; selectivity ratio [17]: > 1800
Nc1ncc(-c2ccc(C(=O)N3CCC(O)CC3)cc2)nc1-c1ccc(C(F)(F)F)nc1	10	9	> 90	200 (≈ 88.7 µg/mL)		> 90		7		7	184 (≈ 81.6 µg/mL)	> 90	64	IC50 [22]: > 33000 nM; Activity [23]: 85%; selectivity ratio [24]: > 868
NC(=O)c1ccc(-c2cnc(N)c(-c3ccc(C(F)(F)F)nc3)n2)cc1	20	16	> 90	< 5	69.3	> 90	2900	14	5000	7.7	< 5	> 90		
CC(C)(C)N1CCN(C(=O)c2ccc(-c3cnc(N)c(-c4ccc(C(F)(F)F)nc4)n3)cc2)CC1	8.9	6.4		200 (≈ 96.9 µg/mL)	4.34		570		1520	14	113 (≈ 54.8 µg/mL)		88	
C[C@H]1[C@H](OC(=O)CCC(=O)O)O[C@@H]2O[C@@]3(C)CC[C@H]4[C@H](C)CC[C@@H]1[C@@]24OO3 [ARTESUNATE]	4	3												MSD [25]: 10 days
Nc1ncc(-c2ccc(C(=O)N3CCC(O)C3)cc2)nc1-c1ccc(C(F)(F)F)cc1 (configuration not stated)	9.6	6.8	> 90	129 (≈ 55.3 µg/mL)	34.7	> 90	2060		3610	8	77 (≈ 33 µg/mL)	> 90	99.6	
Nc1ncc(-c2ccc(C(=O)N3CCNCC3)cc2)nc1-c1ccc(C(F)(F)F)cc1	5.4	5.2	> 90	192 (≈ 82.1 µg/mL)	5.4	> 90	200	>30	400	10	158 (≈ 67.5 µg/mL)	> 90	>99.9	bioavailability [1]: 98%; ED90 [3]: 1 mg/kg; ED90 [8]: 0.25 mg/kg; IC50 [9]: 66 nM; half-life [26]: 7.8 h; half-life [11]: 5.3 h; IC50 [12]: 134 nM; clearance [27]: 10.3 mL/min/kg; AUC [13]: < 65 ng·h/mL; IC50 [22]: 10000 nM; selectivity ratio [17]: > 1800; Activity [23]: >99.9%; selectivity ratio [24]: 1900; IC50 [28]: 0.92 nM; Vd [29]: 5.5 L/kg
